Experimental findings from patent publication US6127342A, “Method for preventing or treating a lung disease caused by active oxygen and free radical injury” (Teijin Limited, priority 1991, dated 2000) are described below.

Structures are written as SMILES.

Format in all cases: in vivo
Assay [1] has as its system liver ischemia-reperfusion model using rats. The experiment in a line: Adenine nucleotides concentration in liver tissue during liver ischemia-reperfusion. As to conditions: rat, 50 mg/kg i.v.; for effect on restoration of liver ATP following reperfusion: 1 hour reperfusion. As for the experimental part: (§1) Male Wister rats weighing 250-300 g were fasted with free access to water 24 hours before the experiment. Seventy-two rats were divided into three groups of 24 animals each, i.e., the control group, the GSH administration group and the γ-GCE-administration group. Each rat was anesthetized by intraperitoneal administration of 40 mg/0.8 ml/kg of sodium pentobarbital, and the femoral vein was cannulated. In the GSH group and the γ-GCE group, 50 mg/kg of GSH or γ-GCE respectively were administered intravenously. Physiological saline was then infused for volume replacement in each group, as a continuous intravenous infusion at a rate of 0.8 ml/hr with an injection pump throughout the experiment. Thirty minutes after starting injection of physiological saline, the abdomon was opened by a midline incision and the liver hilus was exposed. According to the method described by Hasselgren, et al. in J. Surg. Res., Vol. 34, pp. 409-414, 1984, all vessels to the left and median lobes of the liver, more specifically, hepatic artery, portal vein and the bile duct, were clamped to produce an ischemic state for 2 hours. Since blood vessels to the remaining parts of the liver were not occluded by this method, poral stasis could be avoided which was of special relevance for circulation stability in rats. Thereafter, occlusion of all vessels was released by removing the clamp to allow reperfusion for 1 hour. The abdominal walls were closed during ischemia and reperfusion.
Using 18 rats in each group, the livers of 6 animals from each group were removed before ischemia, after 2 hours of ischemia, and after 1 hour of reperfusion, respectively. A portion of the liver from each animal was rapidly frozen in liquid nitrogen and used for measurement of glutathione,adenine nucleotides and lipid peroxide. From the remaining portion of the liver, mitochondria was immediately extracted according to the method described by Hogeboom and Schneider in the J. Biol. Chem., Vol. 172, p. 619, 1948. In other experiments, immediately after starting reperfusion, blood from the hepatic vein was collected using 6 rats from each group. These blood samples were then used to measure leaked adenine nucleotides. In addition, after 1 hour of said reperfusion, blood samples were also drawn, which were then used to measure the activity of the leaked liver cell enzymes.
(§2) Evaluation of ischemia-reperfusion injury was performed by measuring liver tissue (1) mitochondrial function, (2) glutathione concentration, (3) adenine nucleotides concentration, and (4) lipid peroxide concentration, as well as liver tissue derived (5) adenine nucleotides concentration in the hepatic vein immediately after starting reperfusion, and (6) liver cell enzyme activities in the blood after 1 hour of reperfusion. More specifically, the mitochondrial function in (1) was measured according to the method described by Chance, et al. in Adv. Enzymol., Vol. 17, p. 65, 1956. In addition, the quantitative determination of glutathione in (2) was performed using the same method as Experiment 1 on supernatant obtained by adding 10 vol/g of tissue weight of 2.5% (w/v) sulfosalicylic acid dihydrate aqueous solution to the liver tissue followed by homogenization and centrifugation. In addition, the quantitative determination of adenine nucleotides in (3) was performed by neutralizing the perchloric acid extract of the liver tissue with potassium hydroxide followed by removal of the precipitate and applying to an ion exchange HPLC column according to the method described by Sugino, et al. in J. Chromatogr., Vol. 361, pp. 427-431, 1986. In addition, the measurement of lipid peroxide in (4) was performed according to the thiobarbiturate method described by Ohkawa, et al. in Anal. Biochem., Vol. 95, p. 351, 1979. […]

Assay [2] relates to cardiac muscle mitochondria. The experiment in a line: Cardiac muscle mitochondrial function (St. III O2, RCI) after coronary ischemia-reperfusion. As to conditions: dog; 10 mg/kg i.v. just before reperfusion; FIGS. 1A and 1B. An excerpt:
Electrocardiogram electrodes were attached, and monitoring and recording were continued throughout the experiment. Following insertion of cannulas in the right femoral vein and right femoral artery, the cannulas were used for continuous intravenous drip of physiological saline to replenish water or administration of the test preparation, and monitoring of arterial blood pressure, respectively. After performing left thoracotomy in the fourth or fifth intercostal space, the pericardium was torn to expose the heart. Ischemia was induced by ligating the left anterior descending coronary artery immediately distal to the first diagonal branch, while reperfusion was performed by subsequently removing that ligation. The animals were divided into four groups. […] Mitochondria was obtained by removing the heart immediately after the end of ischemia or reperfusion, washing with cold physiological saline, promptly cutting out the ischemic or reperfused area and the normal area, and immediately performing preparation from the respective area according to the method described by […], et al. in Arch. Biochem. Biophys., Vol. 94, pp. 148-155, 1961. The glutathione content of the mitochondria was measured by applying the method described by Tietze in Anal. […] Evaluation of mitochondrial function was performed according to the method described by Sugiyama, et al. in Am. […]

Assay [3] has as its system liver tissue mitochondria. The experiment in a line: Liver tissue mitochondrial function in liver ischemia-reperfusion. As to conditions: rat, 50 mg/kg i.v. before ischemia, FIGS. 2A and 2B; for effect on recovery of liver mitochondrial function during reperfusion: 1 h reperfusion; for effect on reduction of liver mitochondrial St. III O2 caused by ischemia: 2 h ischemia. Here is the method:
as §1, with “reperfusion. […]” for “reperfusion.”
as §2, with “Enzymol., Vol. 17, p. 65, 1956.” left out, “1986.” for “1986. In addition, the measurement of lipid peroxide in (4) was performed according to the thiobarbiturate method described by Ohkawa, et al. in Anal. Biochem., Vol. 95, p. 351, 1979.”

Assay [4] concerns coronary ischemia-reperfusion model using dogs. The experiment in a line: Mortality during coronary ischemia-reperfusion in dogs. As to conditions: dog; for Mortality rate (number of dogs that died / number of dogs in experiment), 1 hour of reperfusion: 1 hour of reperfusion after 10 mg/kg i.v. just before reperfusion; for Mortality rate (number of dogs that died / number of dogs in experiment), 2 hours of ischemia: before the drug was given (10 mg/kg i.v. just before reperfusion). As for the experimental part: After anesthetizing 52 adult mongrel dogs of either sex weighing ca. 10 kg by intraperitoneal administration of 50 mg/kg of sodium pentobarbital, breathing tubes were immediately intubated endotracheally and artificial ventilation was continued using a Harvard ventilator. Electrocardiogram electrodes were attached, and monitoring and recording were continued throughout the experiment. Following insertion of cannulas in the right femoral vein and right femoral artery, the cannulas were used for continuous intravenous drip of physiological saline to replenish water or administration of the test preparation, and monitoring of arterial blood pressure, respectively. After performing left thoracotomy in the fourth or fifth intercostal space, the pericardium was torn to expose the heart. Ischemia was induced by ligating the left anterior descending coronary artery immediately distal to the first diagonal branch, while reperfusion was performed by subsequently removing that ligation.
The animals were divided into four groups. Group 1 (n=9) was subjected to ischemia for 2 hours, group 2 (n=17) was subjected to ischemia for 2 hours followed by reperfusion for 1 hour, group 3 (n=10) was subjected to ischemia for 2 hours followed by reperfusion for 1 hour plus intravenous injection of 10 mg/kg of γ-GCE just before reperfusion, and group 4 (n=16) was subjected to 2 hours of ischemia followed by 1 hour of reperfusion plus intravenous injection of 10 mg/kg of reduced glutathione (GSH, control drug) just before reperfusion.

[5] abbreviates: 10 mg/kg i.v. just before reperfusion.

As to `CCOC(=O)[C@H](CS)NC(=O)CC[C@H](N)C(=O)O` [γ-GCE, γ-L-glutamyl-L-cysteine ethyl ester], in assay [1], the “effect on restoration of liver ATP following reperfusion” value is reported as “significantly promoted restoration of ATP following reperfusion”; the “Liver tissue ADP, after 1 hour reperfusion” value was determined as 0.38 μmol/g wet liver weight; the “Liver tissue AMP, after 1 hour reperfusion” value came out at 0.12 μmol/g wet liver weight; the “Liver tissue ATP + ADP + AMP, after 1 hour reperfusion” value is reported as 2.21 μmol/g wet liver weight. Also, in assay [1], the “Liver tissue ATP, after 1 hour reperfusion” value was 1.70 μmol/g wet liver weight; the “Liver tissue ADP, after 2 hours ischemia” value amounted to 0.17 μmol/g wet liver weight; the “Liver tissue AMP, after 2 hours ischemia” value is reported as 0.87 μmol/g wet liver weight; the “Liver tissue ATP + ADP + AMP, after 2 hours ischemia” value amounted to 1.10 μmol/g wet liver weight. In assay [1], the “Liver tissue ATP, after 2 hours ischemia” value was 0.06 μmol/g wet liver weight; the “Liver tissue ADP, before ischemia” value stood at 0.57 μmol/g wet liver weight; the “Liver tissue AMP, before ischemia” value is 0.13 μmol/g wet liver weight; the “Liver tissue ATP + ADP + AMP, before ischemia” value is on record as 3.39 μmol/g wet liver weight. For the same compound, the “Liver tissue ATP, before ischemia” value in assay [1] was 2.69 μmol/g wet liver weight. For the same compound, the “effect on the reduction of liver ATP caused by ischemia” value in assay [1] (2 hours ischemia) is on record as “did not show any effects on the reduction of ATP caused by ischemia”. Moreover, the “effect on reduction in cardiac muscle mitochondrial function (St. III O2, RCI) during reperfusion” value in assay [2] is “completely suppressed”. Further, in assay [3], the “effect on recovery of liver mitochondrial function during reperfusion” value is given as “significantly promoted recovery of mitochondrial function during reperfusion” and the “effect on reduction of liver mitochondrial St. III O2 caused by ischemia” value is “significantly suppressed reduction of St. III O2 caused by ischemia”. Besides, the “mortality rate during reperfusion” value in assay [4] (setting [5]) is 0. In assay [4], the “Mortality rate (number of dogs that died / number of dogs in experiment), 1 hour of reperfusion” value is on record as 0/8 and the “Mortality rate (number of dogs that died / number of dogs in experiment), 2 hours of ischemia” value is listed as 2/10.

As for `N[C@@H](CCC(=O)N[C@@H](CS)C(=O)NCC(=O)O)C(=O)O` [GSH, reduced glutathione, reference compound], in assay [1], the “effect on restoration of liver ATP following reperfusion” value is on record as “did not show any promotive effects on the restoration of ATP”; the “Liver tissue ADP, after 1 hour reperfusion” value worked out at 0.38 μmol/g wet liver weight; the “Liver tissue AMP, after 1 hour reperfusion” value is recorded as 0.15 μmol/g wet liver weight; the “Liver tissue ATP + ADP + AMP, after 1 hour reperfusion” value is 1.66 μmol/g wet liver weight. Also, in assay [1], the “Liver tissue ATP, after 1 hour reperfusion” value is reported as 1.13 μmol/g wet liver weight; the “Liver tissue ADP, after 2 hours ischemia” value is on record as 0.13 μmol/g wet liver weight; the “Liver tissue AMP, after 2 hours ischemia” value turned out to be 0.73 μmol/g wet liver weight; the “Liver tissue ATP + ADP + AMP, after 2 hours ischemia” value turned out to be 0.90 μmol/g wet liver weight. In addition, in assay [1], the “Liver tissue ATP, after 2 hours ischemia” value is 0.04 μmol/g wet liver weight; the “Liver tissue ADP, before ischemia” value was 0.65 μmol/g wet liver weight; the “Liver tissue AMP, before ischemia” value was 0.18 μmol/g wet liver weight; the “Liver tissue ATP + ADP + AMP, before ischemia” value was determined as 3.40 μmol/g wet liver weight. The “Liver tissue ATP, before ischemia” value in assay [1] amounted to 2.57 μmol/g wet liver weight. Further, the “effect on reduction in cardiac muscle mitochondrial function (St. III O2, RCI) during reperfusion” value in assay [2] is “no protective effects were observed whatsoever”. Also, in assay [3], the “effect on recovery of liver mitochondrial function during reperfusion” value is given as “did not show any protective effects whatsoever” and the “effect on reduction of liver mitochondrial St. III O2 caused by ischemia” value is reported as “did not show any protective effects whatsoever”. Further, the “animals died due to ventricular fibrillation during reperfusion” value in assay [4] (setting [5]) is “ca. 50%”. In assay [4], the “Mortality rate (number of dogs that died / number of dogs in experiment), 1 hour of reperfusion” value is 7/15 and the “Mortality rate (number of dogs that died / number of dogs in experiment), 2 hours of ischemia” value is 1/16.
